In patent US5364885A, “Reduction of hair growth” (priority 1992, dated 1994):
Structures can show the parent of a compound that is named as a salt. Where two headings read alike, the source gives them in different places.

Experiments:
[1] = test system: hamster flank organ hair growth; experiment: Inhibition of hair growth: hamster flank organ hair mass after thirteen topical applications; type: in vivo, male intact Golden Syrian hamsters; details: 13 applications; for inhibition at 5 % strength / inhibition at 10 % strength / inhibition at 20 % strength / inhibition at 30 % strength: Mesocricetus auratus, pH 7-8, read-out: % Inhibition (± SEM)
Protocol: A vehicle or carrier was prepared having the following composition:
A group of male intact Golden Syrian hamsters was provided. These animals were considered acceptable models for human beard hair growth in that they display oval shaped flank organs, one on each side, each about 8 mm. in major diameter, which grow thick black and coarse hair similar to human beard hair. These organs produce hair in response to androgens in the hamster. The flank organs of each hamster were depilated by applying a thioglycolate based chemical depilatory (Surgex), and to one organ of each animal was applied 10-25 μl. of vehicle alone once a day, while to the other organ of each animal was applied an equal amount of vehicle containing the analog. After thirteen applications (one application per day for five days a week), the flank organs were shaved and the amount of recovered hair (hair mass) from each was weighed. Percent-reduction of hair growth was calculated by subtracting the hair mass (mg) value of the test compound treated side from the hair mass value of the vehicle treated side; the delta value obtained was then divided by the hair mass value of the vehicle treated side, and the resultant number was multiplied by 100.

hamster flank organ = details: topical; cited from earlier work
animal sebaceous glands = details: female vs male; cited from earlier work
hair growth = details: intact males; Table 3, Group VI vs. Group X; cited from earlier work
sebum excretion = details: topical, cited from earlier work
[2] = 5% by weight, 10-25 μl once a day, pH 7-8
[3] = 10% by weight, 10-25 μl once a day, pH 7-8
[4] = 20% by weight, 10-25 μl once a day, pH 7-8
[5] = 30% by weight, 10-25 μl once a day, pH 7-8
[6] = 5% by weight, 10-25 μl once a day, vs vehicle treated side
[7] = 10% by weight, 10-25 μl once a day, vs vehicle treated side
[8] = 20% by weight, 10-25 μl once a day, vs vehicle treated side
[9] = 30% by weight, 10-25 μl once a day, vs vehicle treated side

SMILES	Hamster Flank Organ Hair Mass, Treated (± SEM) [1, 2]	Hamster Flank Organ Hair Mass, Treated (± SEM) [1, 3]	Hamster Flank Organ Hair Mass, Treated (± SEM) [1, 4]	Hamster Flank Organ Hair Mass, Treated (± SEM) [1, 5]	inhibition at 5 % strength [1, 6] [%]	inhibition at 10 % strength [1, 7] [%]	inhibition at 20 % strength [1, 8] [%]	inhibition at 30 % strength [1, 9] [%]	reduction in hair growth of the hamster flank organ (hamster flank organ)	reduction in the size of the flank organ (hamster flank organ)	Hamster Flank Organ Hair Mass, Treated (± SEM) ([1]; 10% comparison composition, pH 4.0)	% Inhibition (± SEM) ([1]; 10% comparison composition, vs vehicle treated side, pH 4.0) [%]	inhibition of testosterone metabolism and lipogenesis in sebaceous glands (animal sebaceous glands)	effect on inhibition of hair growth (hair growth)	reducing sebum excretion rates (sebum excretion; females)	reducing sebum excretion rates (sebum excretion; males)
CC(C)(CO)C(O)C(=O)NCCCO (racemic) [DL-PTYA, D, or DL, Pantothenyl alcohol]	2.670 ± .23 mg	1.490 ± .30 mg	1.450 ± .21 mg	.708 ± .13 mg	-8.28 ± 7.51	40.3 ± 7.35	51.1 ± 7.49	70.8 ± 5.95								
CCC[C@]1(O)CC[C@H]2[C@@H]3CCC4=CC(=O)CC[C@]4(C)[C@H]3CC[C@@]21C [17β-hydroxy-17α-propylandrost-4-en-3-one]									substantial reduction in hair growth	reduction in the size of the flank organ						
CC(C)(CO)[C@@H](O)C(=O)NCCCO [D-PTYA, D, or DL, Pantothenyl alcohol]	1.069 ± .15 mg	1.095 ± .32 mg	.899 ± .30 mg	1.069 ± .26 mg	55.9 ± 4.32	48.3 ± 11	31.4 ± 13.8	34.8 ± 8.49								
NCCC[C@](N)(C(=O)O)C(F)F [DFMO, α-difluoromethyl ornithine, reference compound]											.631 ± .12 mg	66.10 ± 7.05				
CC(C)(CO)[C@@H](O)C(=O)NCCC(=O)O [PTA, DPantothenic acid hemicalcium salt]	.738 ± .13 mg	.424 ± .11 mg	.270 ± .12 mg	.160 ± .06 mg	67.3 ± 5.81	71.3 ± 8.96	85.8 ± 5.75	92.7 ± 2.76								
CC(C)(CO)[C@H](O)C(=O)NCCC(=O)[O-].[Na+] [PTAss, D-Pantothenic acid monosodium salt]	.644 ± .15 mg	.364 ± .10 mg	.500 ± .10 mg	.396 ± .95 mg	72.6 ± 5.18	80.1 ± 4.38	74.2 ± 4.83	79.8 ± 4.75								
CC(=O)[C@H]1CC[C@H]2[C@@H]3CCC4=CC(=O)CC[C@]4(C)[C@H]3CC[C@]12C [progesterone]													effective in the female but not in the male	doubtful	effective in reducing sebum excretion rates in females	without effect in males
